# Results as given in patent US7276508B2, “Indole derivatives useful for the treatment of CNS disorders” (H. Lundbeck A/S, priority 2000, dated 2007).
# What was measured:
# D4 receptor = molecular target: T1, D4 receptor (Homo sapiens, UniProt P21917); conditions: various in vitro efficacy assays; cited from earlier work
# T1 sequence (P21917 1-419): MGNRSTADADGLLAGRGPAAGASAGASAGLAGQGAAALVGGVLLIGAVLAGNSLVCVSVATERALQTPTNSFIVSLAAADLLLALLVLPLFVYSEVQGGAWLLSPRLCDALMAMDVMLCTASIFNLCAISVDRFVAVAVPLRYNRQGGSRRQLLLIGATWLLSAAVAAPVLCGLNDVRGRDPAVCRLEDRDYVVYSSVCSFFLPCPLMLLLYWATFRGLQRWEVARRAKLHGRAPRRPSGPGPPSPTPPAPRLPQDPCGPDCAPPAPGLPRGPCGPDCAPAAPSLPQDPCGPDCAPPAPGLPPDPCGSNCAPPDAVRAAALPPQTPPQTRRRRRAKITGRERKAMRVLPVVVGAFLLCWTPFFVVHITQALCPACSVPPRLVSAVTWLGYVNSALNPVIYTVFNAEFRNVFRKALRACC
melting point,SMILES,Functional activity at D4 receptor (literature) (D4 receptor)
172 to 175 °C,"O=C(CCCN1CCC(c2c[nH]c3ccc(Cl)cc23)CC1)N1CCc2ccccc2C1 [Compound 8, 5-Chloro-3-{1-[4-(3,4-dihydro-1H-isoquinolin-2-yl)-4-oxobutan-1-yl]piperidin-4-yl}-1H-indole]",
,CC(C)Oc1cccnc1N(C)C1CCN(Cc2ccccc2)CC1 [Compound U-101958],partial D4 receptor agonists
